± gives the standard deviation of the averaged measurements.
Assays:
Test in all cases: level (log10 ratio to DMSO vehicle control); higher = higher biomarker level / cell amount than vehicle control
[1] = compound: NS(=O)(=O)C(F)(F)C(F)(F)C(F)(F)C(F)(F)C(F)(F)C(F)(F)F [Perfluorohexanesulfonamide]; settings: in DMSO
Description: (§1)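 BioMAP Diversity Plus panel of 12 human primary cell co-culture systems (3C, 4H, LPS, SAg, BT, BF4T, BE3C, CASM3C, HDF3CGF, KF3CT, MyoF, Mphg). Compounds were added 1 h before stimulation and left for 24 h (MyoF 48 h; BT 72 h for soluble read-outs or 6 d for IgG). Biomarkers were read by ELISA, cytotoxicity by SRB, PBMC viability and proliferation by Alamar Blue. Each well value was divided by the mean of 8 DMSO control wells on the same plate and log10 transformed; duplicate blinded samples were tested at 4 concentrations.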

[2] = compound: O=S(=O)(Cl)C(F)(F)C(F)(F)C(F)(F)C(F)(F)C(F)(F)C(F)(F)C(F)(F)C(F)(F)F [Perfluoro-1-octanesulfonyl chloride]; settings: in DMSO
Description: as §1

[3] = compound: FC(F)(F)C(F)(F)C(F)(F)C(F)(F)C(F)(F)C(F)(F)CC1CO1 [3-(Perfluorohexyl)-1,2-epoxypropane]; settings: in DMSO
Description: as §1

[4] = compound: FC(F)(F)C(F)(F)C(F)(F)C(F)(F)C(F)(F)C(F)(F)C(F)(F)I [1-Iodopentadecafluoroheptane]; settings: in DMSO
Description: as §1

[5] = compound: FC(F)(F)C(F)(F)C(F)(F)CC1CO1 [1H,1H-Heptafluorobutyl epoxide]; settings: in DMSO
Description: as §1

Octafluoroadipamide = compound: NC(=O)C(F)(F)C(F)(F)C(F)(F)C(F)(F)C(N)=O [Octafluoroadipamide]; settings: in DMSO
Description: as §1

[6] = compound: O=S(=O)(F)C(F)(F)C(F)(F)C(F)(F)C(F)(F)C(F)(F)C(F)(F)C(F)(F)C(F)(F)F [Perfluorooctanesulfonyl fluoride]; settings: in DMSO
Description: as §1

[7] = compound: COC(=O)C(F)(F)C(F)(F)OC(F)(C(F)(F)F)C(F)(F)OC(F)=C(F)F [Methyl perfluoro(3-(1-ethenyloxypropan-2-yloxy)propanoate)]; settings: in DMSO
Description: as §1

[8] = compound: NC(=O)C(F)(F)C(F)(F)C(F)(F)C(F)F; settings: in DMSO
Description: as §1

[9] = compound: O=S(=O)(O)C(F)(F)C(F)(F)C(F)(F)C(F)(F)C(F)(F)C(F)(F)C(F)(F)C(F)(F)C(F)(F)C(F)(F)F [Sodium perfluorodecanesulfonate]; settings: in DMSO
Description: as §1

[10] = compound: O=S(=O)(O)CCC(F)(F)C(F)(F)C(F)(F)C(F)(F)C(F)(F)C(F)(F)F [6:2 Fluorotelomer sulfonic acid]; settings: in DMSO
Description: as §1

Heptafluorobutyl iodide = compound: FC(F)(F)C(F)(F)C(F)(F)CI [Heptafluorobutyl iodide]; settings: in DMSO
Description: as §1

Nonafluoropentanamide = compound: NC(=O)C(F)(F)C(F)(F)C(F)(F)C(F)(F)F [Nonafluoropentanamide]; settings: in DMSO
Description: as §1

[11] = compound: C=C(C)C(=O)OCCC(F)(F)C(F)(F)C(F)(F)C(F)(F)C(F)(F)C(F)(F)F [6:2 Fluorotelomer methacrylate]; settings: in DMSO
Description: as §1

[12] = compound: C=CC(=O)OCC(F)(F)C(F)(F)C(F)(F)COC(=O)C=C [1H,1H,5H,5H-Perfluoro-1,5-pentanediol diacrylate]; settings: 6700 nM; in DMSO
Description: as §1

[13] = compound: O=C(O)C(F)(F)C(F)(F)C(F)(F)C(F)(F)C(F)(F)C(F)(F)C(F)(F)C(F)(F)C(F)(F)C(F)F [11-H-Perfluoroundecanoic acid]; settings: in DMSO
Description: as §1

[14] = compound: FC(F)(F)C(F)(F)CNCC(F)(F)C(F)(F)F [Bis(1H,1H-perfluoropropyl)amine]; settings: in DMSO
Description: as §1

Hexafluoroamylene glycol = compound: OCC(F)(F)C(F)(F)C(F)(F)CO [Hexafluoroamylene glycol]; settings: in DMSO
Description: as §1

[15] = compound: O=C(O)C=CC(F)(C(F)(F)F)C(F)(F)F [3-(Perfluoroisopropyl)-2-propenoic acid]; settings: in DMSO
Description: as §1

## LPS:SRB
[1]; 6700 nM
  level (log10): -0.012 ± 0.0071
[1]; 20000 nM
  level (log10): -0.017 ± 0.0057
[1]; 60000 nM
  level (log10): -0.0975 ± 0.029
[2]; 6700 nM
  level (log10): 0.0035 ± 0.0035
[2]; 20000 nM
  level (log10): 0.005 ± 0.0028
[2]; 60000 nM
  level (log10): -0.043 ± 0.023
[3]; 6700 nM
  level (log10): -0.0045 ± 0.0035
[3]; 20000 nM
  level (log10): -0.003
[3]; 60000 nM
  level (log10): -0.002 ± 0.0057
[4]; 6700 nM
  level (log10): 0.0035 ± 0.0064
[4]; 20000 nM
  level (log10): 0.003 ± 0.0042
[5]; 6700 nM
  level (log10): 0.0085 ± 0.013
[5]; 20000 nM
  level (log10): 0.002
[5]; 60000 nM
  level (log10): -0.005 ± 0.0071
Octafluoroadipamide; 6700 nM
  level (log10): -0.003 ± 0.011
Octafluoroadipamide; 20000 nM
  level (log10): -0.0075 ± 0.0092
Octafluoroadipamide; 60000 nM
  level (log10): 0.0015 ± 0.0035
[6]; 6700 nM
  level (log10): -0.008 ± 0.0071
[6]; 20000 nM
  level (log10): -0.0025 ± 0.0064
[6]; 60000 nM
  level (log10): -0.002 ± 0.013
[7]; 6700 nM
  level (log10): -0.012
[7]; 20000 nM
  level (log10): -0.0085 ± 0.0078
[8]; 6700 nM
  level (log10): -0.011 ± 0.0071
[8]; 20000 nM
  level (log10): -0.006 ± 0.0042
[8]; 60000 nM
  level (log10): -0.0105 ± 0.00071
[9]; 1500 nM
  level (log10): 0.0025 ± 0.0021
[9]; 4400 nM
  level (log10): -0.001 ± 0.0057
[9]; 13000 nM
  level (log10): -0.0105 ± 0.00071
[9]; 40000 nM
  level (log10): -0.02 ± 0.017
[10]; 6700 nM
  level (log10): -0.0055 ± 0.00071
[10]; 20000 nM
  level (log10): -0.0005 ± 0.0064
[10]; 60000 nM
  level (log10): -0.001 ± 0.023
Heptafluorobutyl iodide; 6700 nM
  level (log10): -0.0035 ± 0.0021
Heptafluorobutyl iodide; 20000 nM
  level (log10): -0.0095 ± 0.0021
Heptafluorobutyl iodide; 60000 nM
  level (log10): 0.0045 ± 0.021
Nonafluoropentanamide; 6700 nM
  level (log10): 0.0015 ± 0.011
Nonafluoropentanamide; 20000 nM
  level (log10): -0.0065 ± 0.005
Nonafluoropentanamide; 60000 nM
  level (log10): -0.003 ± 0.0042
[11]; 6700 nM
  level (log10): -0.003 ± 0.0042
[11]; 20000 nM
  level (log10): -0.0035 ± 0.0064
[11]; 60000 nM
  level (log10): -0.0025 ± 0.00071
[12]
  level (log10): -0.02 ± 0.0042
[13]; 6700 nM
  level (log10): 0.0045 ± 0.013
[13]; 20000 nM
  level (log10): 0.0055 ± 0.005
[14]; 6700 nM
  level (log10): -0.008 ± 0.0042
[14]; 20000 nM
  level (log10): 0.001 ± 0.016
[14]; 60000 nM
  level (log10): -0.0015 ± 0.0021
Hexafluoroamylene glycol; 6700 nM
  level (log10): -0.004 ± 0.0028
Hexafluoroamylene glycol; 20000 nM
  level (log10): -0.0095 ± 0.015
Hexafluoroamylene glycol; 60000 nM
  level (log10): 0.002 ± 0.018
[15]; 6700 nM
  level (log10): -0.0015 ± 0.018
[15]; 20000 nM
  level (log10): -0.011 ± 0.016
[15]; 60000 nM
  level (log10): -0.0115 ± 0.028

From the supplement of paper PMC10331698
